# Columns and labels:
# Type in all cases: in vivo
# [1] = test system: green foxtail (Setaria viridis); assay: Test B pre-/postemergence plant response; conditions: for Foxtail, Green plant response rating (0 to 100 scale): 62 g ai/ha, postemergence, 0 is no effect, 100 is complete control; for Plant response rating, Foxtail, Green: Postemergence
# Outline: (§1)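 Visual injury, 0–100 scale (100 = complete control), rated against controls after 13 to 15 days in greenhouse. Pre-emergence: seeds in loam/sand soil, treated at planting. Post-emergence: 1- to 4-leaf plants (2 to 18 cm) in peat/vermiculite medium. Compounds formulated in non-phytotoxic solvent with surfactant.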
# [2] = test system: pigweed (Amaranthus retroflexus); assay: Test B pre-/postemergence plant response; conditions: for Pigweed plant response rating (0 to 100 scale): 62 g ai/ha, postemergence, 0 is no effect, 100 is complete control; for Plant response rating, Pigweed: Postemergence
# Outline: as §1
# [3] = test system: cocklebur (Xanthium strumarium); assay: Test B pre-/postemergence plant response; conditions: for Cocklebur plant response rating (0 to 100 scale): 62 g ai/ha, postemergence, 0 is no effect, 100 is complete control; for Plant response rating, Cocklebur: Postemergence
# Outline: as §1
# [4] = test system: giant foxtail (Setaria faberii); assay: Test B pre-/postemergence plant response; conditions: for Foxtail, Giant plant response rating (0 to 100 scale): 62 g ai/ha, postemergence, 0 is no effect, 100 is complete control; for Plant response rating, Foxtail, Giant: Postemergence
# Outline: as §1
# [5] = test system: goosegrass (Eleusine indica); assay: Test B pre-/postemergence plant response; conditions: for Goosegrass plant response rating (0 to 100 scale): 62 g ai/ha, postemergence, 0 is no effect, 100 is complete control; for Plant response rating, Goosegrass: Postemergence
# Outline: as §1
# [6] = test system: morningglory (Ipomoea coccinea); assay: Test B pre-/postemergence plant response; conditions: for Morningglory plant response rating (0 to 100 scale): 62 g ai/ha, postemergence, 0 is no effect, 100 is complete control; for Plant response rating, Morningglory: Postemergence
# Outline: as §1
# [7] = test system: downy bromegrass (Bromus tectorum); assay: Test B pre-/postemergence plant response; conditions: for Bromegrass, Downy plant response rating (0 to 100 scale): 62 g ai/ha, postemergence, 0 is no effect, 100 is complete control; for Plant response rating, Bromegrass, Downy: Postemergence
# Outline: as §1
# [8] = test system: wheat (Triticum aestivum); assay: Test B pre-/postemergence plant response; conditions: for Wheat plant response rating (0 to 100 scale): 62 g ai/ha, postemergence, 0 is no effect, 100 is complete control; for Plant response rating, Wheat: Postemergence
# Outline: as §1
# kochia (Kochia scoparia) = assay: Test B pre-/postemergence plant response; conditions: for Kochia plant response rating (0 to 100 scale): 62 g ai/ha, postemergence, 0 is no effect, 100 is complete control; for Plant response rating, Kochia: Postemergence
# Outline: as §1
# [9] = test system: large crabgrass (Digitaria sanguinalis); assay: Test A pre-/postemergence plant response
# Outline: (§2)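 Seeds planted in loam soil/sand blend; test chemicals in non-phytotoxic solvent mixture with surfactant applied as directed soil spray preemergence and, concurrently, postemergence to plants 2–10 cm tall at one- to two-leaf stage. Greenhouse ~10 days; visual injury vs untreated controls, 0 (no effect) to 100 (complete control).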
# [10] = test system: wheat (Triticum aestivum); assay: Test A pre-/postemergence plant response
# Outline: as §2
# [11] = test system: velvetleaf (Abutilon theophrasti); assay: Test A pre-/postemergence plant response
# Outline: as §2
# [12] = test system: morningglory (Ipomoea spp.); assay: Test A pre-/postemergence plant response
# Outline: as §2
# [13] = 31 g ai/ha, 0 to 100 scale (0 no effect, 100 complete control)
# [14] = 125 g ai/ha, scale 0 to 100 (0 no effect, 100 complete control)
# [15] = 250 g ai/ha, scale 0 to 100 (0 no effect, 100 complete control)
# [16] = Postemergence, 125 g ai/ha, 0 to 100 scale where 0 is no effect and 100 is complete control
# [17] = Postemergence, 500 g ai/ha, 0 to 100 scale, 0 = no effect, 100 = complete control, approx. ten days
# [18] = Preemergence, 125 g ai/ha, 0 to 100 scale, 0 = no effect, 100 = complete control
# [19] = Preemergence, 500 g ai/ha, visual injury, 0 to 100 scale (0 no effect, 100 complete control), approx. ten days
# [20] = 250 g ai/ha, scale 0 to 100 (0 no effect, 100 complete control), 13 to 15 days
smiles,measurement,setting,value
COCCCn1c(-c2cccc(F)c2)ncc(C(=O)C2=C(O)CCCC2=O)c1=O [Compound 126],"Foxtail, Green plant response rating (0 to 100 scale)",[1]; 13 to 15 days,80
same,"Plant response rating, Foxtail, Green",[1]; [13],50
same,"Plant response rating, Foxtail, Green",[1]; [14],90
same,"Plant response rating, Foxtail, Green",[1]; [15],95
same,Pigweed plant response rating (0 to 100 scale),[2]; 13 to 15 days,95
same,"Plant response rating, Pigweed",[2]; [13],75
same,"Plant response rating, Pigweed",[2]; [14],98
same,"Plant response rating, Pigweed",[2]; [15],98
same,Cocklebur plant response rating (0 to 100 scale),[3]; 13 to 15 days,65
same,"Plant response rating, Cocklebur",[3]; [13],15
same,"Plant response rating, Cocklebur",[3]; [14],80
same,"Plant response rating, Cocklebur",[3]; [15],98
same,"Foxtail, Giant plant response rating (0 to 100 scale)",[4]; 13 to 15 days,80
same,"Plant response rating, Foxtail, Giant",[4]; [13],70
same,"Plant response rating, Foxtail, Giant",[4]; [14],85
same,"Plant response rating, Foxtail, Giant",[4]; [15],90
same,Goosegrass plant response rating (0 to 100 scale),[5]; 13 to 15 days,70
same,"Plant response rating, Goosegrass",[5]; [13],65
same,"Plant response rating, Goosegrass",[5]; [14],75
same,"Plant response rating, Goosegrass",[5]; [15],85
same,Morningglory plant response rating (0 to 100 scale),[6]; 13 to 15 days,85
same,"Plant response rating, Morningglory",[6]; [13],75
same,"Plant response rating, Morningglory",[6]; [14],100
same,"Plant response rating, Morningglory",[6]; [15],100
same,"Bromegrass, Downy plant response rating (0 to 100 scale)",[7]; 13 to 15 days,15
same,"Plant response rating, Bromegrass, Downy",[7]; [13],5
same,"Plant response rating, Bromegrass, Downy",[7]; [14],30
same,"Plant response rating, Bromegrass, Downy",[7]; [15],40
same,Wheat plant response rating (0 to 100 scale),[8]; 13 to 15 days,15
same,"Plant response rating, Wheat",[8]; [13],5
same,"Plant response rating, Wheat",[8]; [14],35
same,Kochia plant response rating (0 to 100 scale),kochia (Kochia scoparia); 13 to 15 days,25
same,"Plant response rating, Kochia",kochia (Kochia scoparia); [13],10
same,"Plant response rating, Kochia",kochia (Kochia scoparia); [14],25
same,"Plant response rating, Kochia",kochia (Kochia scoparia); [15],85
same,"Plant response rating, Crabgrass, Large",[9]; [16],90
same,"Plant response rating, Crabgrass, Large",[9]; [17],90
same,"Plant response rating, Crabgrass, Large",[9]; [18],90
same,"Plant response rating, Crabgrass, Large",[9]; [19],100
same,"Plant response rating, Wheat",[10]; [16],0
same,"Plant response rating, Wheat",[10]; [17],20
same,"Plant response rating, Wheat",[10]; [18],0
same,"Plant response rating, Wheat",[10]; [19],20
same,"Plant response rating, Velvetleaf",[11]; [16],100
same,"Plant response rating, Velvetleaf",[11]; [17],100
same,"Plant response rating, Velvetleaf",[11]; [18],80
same,"Plant response rating, Velvetleaf",[11]; [19],100
same,"Plant response rating, Morningglory",[12]; [16],100
same,"Plant response rating, Morningglory",[12]; [17],100
same,"Plant response rating, Morningglory",[12]; [18],70
same,"Plant response rating, Morningglory",[12]; [19],90
CCCn1c(-c2cccc(F)c2)ncc(C(=O)C2=C(O)CCCC2=O)c1=O [Compound 127],"Foxtail, Green plant response rating (0 to 100 scale)",[1]; 13 to 15 days,85
same,"Plant response rating, Foxtail, Green",[1]; [13],75
same,"Plant response rating, Foxtail, Green",[1]; [14],90
same,"Plant response rating, Foxtail, Green",[1]; [20],95
same,Pigweed plant response rating (0 to 100 scale),[2]; 13 to 15 days,95
same,"Plant response rating, Pigweed",[2]; [13],80
same,"Plant response rating, Pigweed",[2]; [14],95
same,"Plant response rating, Pigweed",[2]; [20],100
same,Cocklebur plant response rating (0 to 100 scale),[3]; 13 to 15 days,95
same,"Plant response rating, Cocklebur",[3]; [13],75
same,"Plant response rating, Cocklebur",[3]; [14],95
same,"Plant response rating, Cocklebur",[3]; [20],100
same,"Foxtail, Giant plant response rating (0 to 100 scale)",[4]; 13 to 15 days,85
same,"Plant response rating, Foxtail, Giant",[4]; [13],80
same,"Plant response rating, Foxtail, Giant",[4]; [14],85
same,"Plant response rating, Foxtail, Giant",[4]; [20],90
same,Goosegrass plant response rating (0 to 100 scale),[5]; 13 to 15 days,75
same,"Plant response rating, Goosegrass",[5]; [13],65
same,"Plant response rating, Goosegrass",[5]; [14],75
same,"Plant response rating, Goosegrass",[5]; [20],85
same,Morningglory plant response rating (0 to 100 scale),[6]; 13 to 15 days,80
same,"Plant response rating, Morningglory",[6]; [13],65
same,"Plant response rating, Morningglory",[6]; [14],90
same,"Plant response rating, Morningglory",[6]; [20],98
same,"Bromegrass, Downy plant response rating (0 to 100 scale)",[7]; 13 to 15 days,10
same,"Plant response rating, Bromegrass, Downy",[7]; [13],5
same,"Plant response rating, Bromegrass, Downy",[7]; [14],20
same,"Plant response rating, Bromegrass, Downy",[7]; [20],40
same,Wheat plant response rating (0 to 100 scale),[8]; 13 to 15 days,10
same,"Plant response rating, Wheat",[8]; [13],5
same,"Plant response rating, Wheat",[8]; [14],25
same,"Plant response rating, Wheat",[8]; [20],40
same,Kochia plant response rating (0 to 100 scale),kochia (Kochia scoparia); 13 to 15 days,98
same,"Plant response rating, Kochia",kochia (Kochia scoparia); [13],45
same,"Plant response rating, Kochia",kochia (Kochia scoparia); [14],100
same,"Plant response rating, Kochia",kochia (Kochia scoparia); [20],100
same,"Plant response rating, Crabgrass, Large",[9]; [16],80
same,"Plant response rating, Crabgrass, Large",[9]; [17],90
same,"Plant response rating, Crabgrass, Large",[9]; [18],90
same,"Plant response rating, Crabgrass, Large",[9]; [19],100
same,"Plant response rating, Wheat",[10]; [16],0
same,"Plant response rating, Wheat",[10]; [17],0
same,"Plant response rating, Wheat",[10]; [18],0
same,"Plant response rating, Wheat",[10]; [19],0
same,"Plant response rating, Velvetleaf",[11]; [16],100
same,"Plant response rating, Velvetleaf",[11]; [17],100
same,"Plant response rating, Velvetleaf",[11]; [18],70
same,"Plant response rating, Velvetleaf",[11]; [19],100
same,"Plant response rating, Morningglory",[12]; [16],90
same,"Plant response rating, Morningglory",[12]; [17],100
same,"Plant response rating, Morningglory",[12]; [18],10
same,"Plant response rating, Morningglory",[12]; [19],80

# Source: patent publication US8952024B2, “Herbicidal pyrimidone derivatives” (E I du Pont de Nemours and Company, priority 2009, dated 2015)
